Experiments:
[1] = target: Histamine H3 receptor (Homo sapiens) (UniProt Q9Y5N1); assay: Inhibition of H3 receptor (unknown origin); settings: concentration not given here
[2] = target: Beta-2 adrenergic receptor (Homo sapiens) (UniProt P07550); assay: Inhibition of beta 2 receptor (unknown origin); settings: concentration not given here
[3] = target: Mu-type opioid receptor (Homo sapiens) (UniProt P35372); assay: Inhibition of MOR receptor (unknown origin); settings: concentration not given here
[4] = target: 5-hydroxytryptamine receptor 1D (Homo sapiens, UniProt P28221); assay: Binding affinity to 5HT1D receptor (unknown origin) assessed as inhibition constant
[5] = target: T1, Beta-1 adrenergic receptor (Homo sapiens, UniProt P08588); assay: Inhibition of beta1 receptor (unknown origin); settings: concentration not given here
[6] = target: 5-hydroxytryptamine receptor 1B (Homo sapiens, UniProt P28222); assay: Binding affinity to 5HT1B receptor (unknown origin) assessed as inhibition constant
[7] = target: T2, 5-hydroxytryptamine receptor 2A (Homo sapiens, UniProt P28223); assay: Binding affinity to 5HT2A receptor (unknown origin) assessed as inhibition constant
[8] = target: 5-hydroxytryptamine receptor 2B (Homo sapiens, UniProt P41595); assay: Binding affinity to 5HT2B receptor (unknown origin) assessed as inhibition constant
[9] = target: T3, Muscarinic acetylcholine receptor M2 (Homo sapiens) (UniProt P08172); assay: Inhibition of M2 receptor (unknown origin); settings: concentration not given here
T3 sequence (whole entry): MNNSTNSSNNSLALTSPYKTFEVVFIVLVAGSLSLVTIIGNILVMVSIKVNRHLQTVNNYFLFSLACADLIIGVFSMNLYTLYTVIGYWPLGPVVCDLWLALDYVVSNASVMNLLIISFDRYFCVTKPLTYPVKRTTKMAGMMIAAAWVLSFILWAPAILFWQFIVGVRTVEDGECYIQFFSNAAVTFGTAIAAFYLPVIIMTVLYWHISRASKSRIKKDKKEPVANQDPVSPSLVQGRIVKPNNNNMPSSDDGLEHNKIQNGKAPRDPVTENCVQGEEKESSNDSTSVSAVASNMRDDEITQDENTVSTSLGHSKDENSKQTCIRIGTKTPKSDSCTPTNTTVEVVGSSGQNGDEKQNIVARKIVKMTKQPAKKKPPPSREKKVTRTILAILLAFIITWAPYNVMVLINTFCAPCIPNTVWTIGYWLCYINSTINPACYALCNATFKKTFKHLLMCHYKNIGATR

[10] = target: Kappa-type opioid receptor (Homo sapiens) (UniProt P41145); assay: Inhibition of KOR receptor (unknown origin); settings: concentration not given here
[11] = target: Sodium-dependent noradrenaline transporter (Homo sapiens) (UniProt P23975); assay: Inhibition of NET receptor (unknown origin); settings: concentration not given here
[12] = target: T2, 5-hydroxytryptamine receptor 2A; assay: Agonist activity at human 5HT2A receptor stably expressed in Flp-In-T-REx-293 cells assessed as increase in Gq-mediated calcium flux by Fluo-4 direct dye based FLIPR Tetra assay; type: functional, cell-based
[13] = target: T4, Alpha-2A adrenergic receptor (Homo sapiens) (UniProt P08913); assay: Inhibition of alpha2A receptor (unknown origin); settings: concentration not given here
T4 sequence (whole entry): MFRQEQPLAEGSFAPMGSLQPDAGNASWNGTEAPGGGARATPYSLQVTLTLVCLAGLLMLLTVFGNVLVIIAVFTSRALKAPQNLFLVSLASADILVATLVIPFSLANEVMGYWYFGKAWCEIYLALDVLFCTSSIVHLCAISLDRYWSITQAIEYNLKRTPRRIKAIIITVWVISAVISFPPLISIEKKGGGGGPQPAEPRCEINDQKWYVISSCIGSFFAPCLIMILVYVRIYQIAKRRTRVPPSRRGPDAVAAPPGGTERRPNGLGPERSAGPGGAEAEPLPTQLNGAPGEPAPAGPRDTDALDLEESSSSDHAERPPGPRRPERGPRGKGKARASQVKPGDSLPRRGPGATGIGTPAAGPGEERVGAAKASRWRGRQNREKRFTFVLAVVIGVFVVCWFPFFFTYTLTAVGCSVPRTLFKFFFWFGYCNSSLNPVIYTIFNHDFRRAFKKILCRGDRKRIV

[14] = target: T5, Muscarinic acetylcholine receptor M1 (Homo sapiens) (UniProt P11229); assay: Inhibition of M1 receptor (unknown origin); settings: concentration not given here
T5 sequence (whole entry): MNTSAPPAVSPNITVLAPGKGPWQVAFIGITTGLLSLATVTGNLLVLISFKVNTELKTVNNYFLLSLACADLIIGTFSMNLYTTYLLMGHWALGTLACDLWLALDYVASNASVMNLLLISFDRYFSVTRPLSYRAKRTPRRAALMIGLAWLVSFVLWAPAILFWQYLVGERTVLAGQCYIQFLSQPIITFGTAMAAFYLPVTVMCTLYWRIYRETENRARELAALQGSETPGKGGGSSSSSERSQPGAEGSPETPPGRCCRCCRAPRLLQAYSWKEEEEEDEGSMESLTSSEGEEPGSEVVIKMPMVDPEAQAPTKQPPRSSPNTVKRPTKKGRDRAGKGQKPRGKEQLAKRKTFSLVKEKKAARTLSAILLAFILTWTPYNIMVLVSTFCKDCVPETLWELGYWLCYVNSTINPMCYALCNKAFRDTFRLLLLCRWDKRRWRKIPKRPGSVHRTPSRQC

[15] = target: T6, Alpha-1B adrenergic receptor (Homo sapiens) (UniProt P35368); assay: Inhibition of alpha1B receptor (unknown origin); settings: concentration not given here
T6 sequence (whole entry): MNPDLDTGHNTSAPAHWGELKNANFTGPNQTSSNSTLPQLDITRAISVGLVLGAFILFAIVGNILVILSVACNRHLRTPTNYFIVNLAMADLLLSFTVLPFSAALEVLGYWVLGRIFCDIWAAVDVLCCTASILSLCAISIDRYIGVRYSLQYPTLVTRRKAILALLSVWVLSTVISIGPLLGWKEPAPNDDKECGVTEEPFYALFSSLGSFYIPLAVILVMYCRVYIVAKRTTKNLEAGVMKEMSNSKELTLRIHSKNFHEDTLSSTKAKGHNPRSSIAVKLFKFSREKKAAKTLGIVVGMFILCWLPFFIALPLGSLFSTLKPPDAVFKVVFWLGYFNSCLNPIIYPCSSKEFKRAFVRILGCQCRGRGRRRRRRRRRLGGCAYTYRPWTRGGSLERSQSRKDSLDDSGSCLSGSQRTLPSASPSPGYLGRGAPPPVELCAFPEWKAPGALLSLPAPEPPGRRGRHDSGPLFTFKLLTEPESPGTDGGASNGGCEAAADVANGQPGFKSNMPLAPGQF

[16] = target: Histamine H4 receptor (Homo sapiens) (UniProt Q9H3N8); assay: Inhibition of H4 receptor (unknown origin); settings: concentration not given here
[17] = target: 5-hydroxytryptamine receptor 3A (Homo sapiens, UniProt P46098); assay: Binding affinity to 5HT3 receptor (unknown origin) assessed as inhibition constant
[18] = target: Sodium-dependent serotonin transporter (Homo sapiens, UniProt P31645); assay: Inhibition of SERT receptor (unknown origin); settings: concentration not given here
[19] = target: Sigma non-opioid intracellular receptor 1 (Homo sapiens, UniProt Q99720); assay: Binding affinity to sigma 1 receptor (unknown origin) assessed as inhibition constant
[20] = target: D(4) dopamine receptor (Homo sapiens) (UniProt P21917); assay: Inhibition of D4 receptor (unknown origin); settings: concentration not given here
[21] = target: T1, Beta-1 adrenergic receptor; assay: Binding affinity to beta1 receptor (unknown origin) assessed as inhibition constant

T2 sequence (P28223 whole entry): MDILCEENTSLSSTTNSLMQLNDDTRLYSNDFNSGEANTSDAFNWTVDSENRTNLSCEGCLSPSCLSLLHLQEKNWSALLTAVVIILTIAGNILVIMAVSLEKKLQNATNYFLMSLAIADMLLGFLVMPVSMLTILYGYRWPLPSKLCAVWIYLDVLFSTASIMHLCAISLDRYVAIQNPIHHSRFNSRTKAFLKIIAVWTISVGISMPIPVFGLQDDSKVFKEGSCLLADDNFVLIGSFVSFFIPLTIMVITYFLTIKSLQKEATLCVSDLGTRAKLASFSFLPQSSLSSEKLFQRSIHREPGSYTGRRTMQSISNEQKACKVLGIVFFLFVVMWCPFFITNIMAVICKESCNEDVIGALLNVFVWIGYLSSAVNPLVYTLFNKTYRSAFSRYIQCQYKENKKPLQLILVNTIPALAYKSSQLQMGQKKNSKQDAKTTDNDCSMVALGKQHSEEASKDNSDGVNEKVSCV
5-hydroxytryptamine receptor 1D, sequence (P28221 whole entry): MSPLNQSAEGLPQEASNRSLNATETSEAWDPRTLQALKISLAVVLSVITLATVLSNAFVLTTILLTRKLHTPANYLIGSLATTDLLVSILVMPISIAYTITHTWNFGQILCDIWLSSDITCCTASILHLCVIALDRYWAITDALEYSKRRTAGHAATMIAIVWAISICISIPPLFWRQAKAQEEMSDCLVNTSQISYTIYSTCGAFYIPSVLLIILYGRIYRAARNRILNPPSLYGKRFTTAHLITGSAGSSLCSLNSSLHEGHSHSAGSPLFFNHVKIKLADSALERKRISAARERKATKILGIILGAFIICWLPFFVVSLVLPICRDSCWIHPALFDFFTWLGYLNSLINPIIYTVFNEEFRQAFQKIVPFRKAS
Sigma non-opioid intracellular receptor 1, sequence (Q99720 whole entry): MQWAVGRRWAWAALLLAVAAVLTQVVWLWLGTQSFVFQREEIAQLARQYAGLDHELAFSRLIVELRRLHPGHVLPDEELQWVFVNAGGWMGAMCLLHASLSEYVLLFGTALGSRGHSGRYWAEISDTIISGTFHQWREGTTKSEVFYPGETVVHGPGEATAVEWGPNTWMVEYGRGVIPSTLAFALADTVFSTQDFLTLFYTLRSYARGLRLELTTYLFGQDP
Histamine H4 receptor (Homo sapiens), sequence (Q9H3N8 whole entry): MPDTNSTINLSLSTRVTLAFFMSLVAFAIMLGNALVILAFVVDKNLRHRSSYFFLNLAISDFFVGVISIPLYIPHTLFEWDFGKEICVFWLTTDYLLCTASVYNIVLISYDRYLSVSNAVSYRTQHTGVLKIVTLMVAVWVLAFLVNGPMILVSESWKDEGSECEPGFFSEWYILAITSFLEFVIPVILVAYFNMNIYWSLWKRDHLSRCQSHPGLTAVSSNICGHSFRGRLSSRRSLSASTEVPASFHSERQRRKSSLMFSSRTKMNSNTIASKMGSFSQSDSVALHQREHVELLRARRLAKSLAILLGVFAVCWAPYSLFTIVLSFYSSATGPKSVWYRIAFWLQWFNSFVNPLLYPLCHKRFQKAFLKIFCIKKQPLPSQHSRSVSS
Sodium-dependent serotonin transporter, sequence (P31645 whole entry, looked up): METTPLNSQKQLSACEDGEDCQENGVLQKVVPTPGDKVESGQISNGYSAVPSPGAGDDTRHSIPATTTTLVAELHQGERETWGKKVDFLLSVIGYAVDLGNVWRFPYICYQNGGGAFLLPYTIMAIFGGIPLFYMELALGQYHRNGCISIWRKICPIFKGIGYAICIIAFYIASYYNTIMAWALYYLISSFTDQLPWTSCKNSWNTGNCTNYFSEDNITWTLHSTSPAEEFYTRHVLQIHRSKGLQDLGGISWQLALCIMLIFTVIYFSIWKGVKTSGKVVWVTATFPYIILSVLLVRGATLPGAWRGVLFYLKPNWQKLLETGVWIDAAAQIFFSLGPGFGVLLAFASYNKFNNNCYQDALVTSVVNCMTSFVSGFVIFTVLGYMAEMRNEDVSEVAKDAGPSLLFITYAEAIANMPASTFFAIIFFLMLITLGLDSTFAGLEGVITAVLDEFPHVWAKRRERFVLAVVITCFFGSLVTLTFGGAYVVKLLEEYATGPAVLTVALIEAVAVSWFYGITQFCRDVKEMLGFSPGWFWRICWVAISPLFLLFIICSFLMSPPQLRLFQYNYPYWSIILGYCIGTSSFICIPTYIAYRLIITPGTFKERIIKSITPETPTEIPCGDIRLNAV
Beta-2 adrenergic receptor (Homo sapiens), sequence (P07550 whole entry, looked up): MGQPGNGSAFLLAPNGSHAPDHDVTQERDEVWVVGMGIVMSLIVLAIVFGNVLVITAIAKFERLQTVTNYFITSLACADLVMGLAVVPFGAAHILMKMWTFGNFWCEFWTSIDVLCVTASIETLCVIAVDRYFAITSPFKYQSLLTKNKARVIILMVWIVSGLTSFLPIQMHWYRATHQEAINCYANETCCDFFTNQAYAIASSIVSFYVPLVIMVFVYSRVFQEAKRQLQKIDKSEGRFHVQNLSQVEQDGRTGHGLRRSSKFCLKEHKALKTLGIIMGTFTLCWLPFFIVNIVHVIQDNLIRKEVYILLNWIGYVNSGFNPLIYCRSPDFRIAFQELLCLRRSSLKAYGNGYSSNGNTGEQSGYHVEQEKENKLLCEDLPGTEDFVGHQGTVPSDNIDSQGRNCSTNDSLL
Kappa-type opioid receptor (Homo sapiens), sequence (P41145 whole entry): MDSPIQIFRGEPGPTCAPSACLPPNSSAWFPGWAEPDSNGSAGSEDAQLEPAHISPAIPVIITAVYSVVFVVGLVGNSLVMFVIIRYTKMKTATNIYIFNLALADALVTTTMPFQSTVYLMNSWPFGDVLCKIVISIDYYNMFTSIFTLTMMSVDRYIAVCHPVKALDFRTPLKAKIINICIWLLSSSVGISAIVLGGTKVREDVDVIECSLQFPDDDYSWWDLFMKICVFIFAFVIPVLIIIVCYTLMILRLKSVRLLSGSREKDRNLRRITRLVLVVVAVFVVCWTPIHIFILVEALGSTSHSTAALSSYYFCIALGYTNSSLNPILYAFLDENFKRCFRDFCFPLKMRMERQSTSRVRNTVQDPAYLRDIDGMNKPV
Histamine H3 receptor (Homo sapiens), sequence (Q9Y5N1 whole entry): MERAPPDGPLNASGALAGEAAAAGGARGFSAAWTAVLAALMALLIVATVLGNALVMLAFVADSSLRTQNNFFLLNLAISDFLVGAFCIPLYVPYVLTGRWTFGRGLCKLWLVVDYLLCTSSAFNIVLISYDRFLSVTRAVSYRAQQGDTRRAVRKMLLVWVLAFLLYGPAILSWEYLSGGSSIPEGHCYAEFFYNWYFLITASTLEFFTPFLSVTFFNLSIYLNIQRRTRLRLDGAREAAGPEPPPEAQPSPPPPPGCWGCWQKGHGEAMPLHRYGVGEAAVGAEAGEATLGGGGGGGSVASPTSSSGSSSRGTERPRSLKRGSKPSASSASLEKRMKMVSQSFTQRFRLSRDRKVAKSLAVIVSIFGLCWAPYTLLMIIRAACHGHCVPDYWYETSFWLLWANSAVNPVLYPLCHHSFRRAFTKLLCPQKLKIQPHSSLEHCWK
5-hydroxytryptamine receptor 1B, sequence (P28222 whole entry): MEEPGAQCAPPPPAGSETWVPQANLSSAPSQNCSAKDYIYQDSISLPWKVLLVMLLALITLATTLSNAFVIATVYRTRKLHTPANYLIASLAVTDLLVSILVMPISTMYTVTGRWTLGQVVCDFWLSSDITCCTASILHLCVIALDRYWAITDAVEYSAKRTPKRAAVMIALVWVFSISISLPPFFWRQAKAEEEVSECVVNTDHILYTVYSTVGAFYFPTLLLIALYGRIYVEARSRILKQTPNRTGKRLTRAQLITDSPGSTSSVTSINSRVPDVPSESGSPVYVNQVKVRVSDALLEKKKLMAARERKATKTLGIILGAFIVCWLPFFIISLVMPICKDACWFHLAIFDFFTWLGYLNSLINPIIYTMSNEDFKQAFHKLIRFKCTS
Sodium-dependent noradrenaline transporter (Homo sapiens), sequence (P23975 whole entry): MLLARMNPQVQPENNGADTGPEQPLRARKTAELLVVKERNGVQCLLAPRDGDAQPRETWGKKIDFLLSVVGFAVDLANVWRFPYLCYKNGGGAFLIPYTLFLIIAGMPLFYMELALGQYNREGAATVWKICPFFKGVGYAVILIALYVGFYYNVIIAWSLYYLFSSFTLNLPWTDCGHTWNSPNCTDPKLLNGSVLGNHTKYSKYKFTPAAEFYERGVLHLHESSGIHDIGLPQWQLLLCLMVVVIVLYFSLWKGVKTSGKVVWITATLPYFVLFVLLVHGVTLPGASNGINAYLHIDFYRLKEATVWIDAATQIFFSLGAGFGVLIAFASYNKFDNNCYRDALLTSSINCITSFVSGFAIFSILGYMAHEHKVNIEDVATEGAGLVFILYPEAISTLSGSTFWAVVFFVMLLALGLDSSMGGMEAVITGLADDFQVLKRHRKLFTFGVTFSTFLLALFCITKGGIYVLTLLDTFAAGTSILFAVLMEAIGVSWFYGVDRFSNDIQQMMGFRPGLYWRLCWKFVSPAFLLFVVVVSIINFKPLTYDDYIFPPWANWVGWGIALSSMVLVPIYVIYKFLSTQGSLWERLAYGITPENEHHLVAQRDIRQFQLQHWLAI
Mu-type opioid receptor (Homo sapiens), sequence (P35372 whole entry): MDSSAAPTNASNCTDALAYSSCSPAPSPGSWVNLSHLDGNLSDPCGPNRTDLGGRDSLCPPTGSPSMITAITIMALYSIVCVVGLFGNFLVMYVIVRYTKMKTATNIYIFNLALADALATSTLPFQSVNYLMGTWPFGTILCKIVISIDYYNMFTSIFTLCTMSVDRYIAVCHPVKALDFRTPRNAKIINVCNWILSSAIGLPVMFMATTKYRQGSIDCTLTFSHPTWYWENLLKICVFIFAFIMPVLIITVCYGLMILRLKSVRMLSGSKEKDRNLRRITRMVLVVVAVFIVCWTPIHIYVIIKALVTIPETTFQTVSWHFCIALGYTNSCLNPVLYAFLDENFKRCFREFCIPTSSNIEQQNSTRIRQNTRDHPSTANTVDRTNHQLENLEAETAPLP

SMILES | inhibition [1] [%] | inhibition [2] [%] | inhibition [3] [%] | Ki [4] [nM] | inhibition [5] [%] | Ki [6] [nM] | Ki [7] [nM] | Ki [8] [nM] | inhibition [9] [%] | inhibition [10] [%] | inhibition [11] [%] | EC50 [12] [nM] | inhibition [13] [%] | inhibition [14] [%] | inhibition [15] [%] | inhibition [16] [%] | Ki [17] [nM] | inhibition [18] [%] | Ki [19] [nM] | inhibition [20] [%] | also measured
COc1ccc(C2NCCc3c2[nH]c2ccc(F)cc32)c(O)c1 (stereo not drawn) | < 50 | < 50 | < 50 | 110 | < 50 | 70.8 | 250 | 4.42 | < 50 | < 50 | < 50 | 3.2 | < 50 | < 50 | < 50 | < 50 |  |  |  |  | 
COc1cc(OC)c(C2NCCc3c2[nH]c2ccc(Cl)cc32)cc1OC (stereo not drawn) | < 50 | < 50 | < 50 | 38.8 |  | 52.1 | 113 | 2.93 | < 50 | < 50 | < 50 | 1.7 | < 50 | < 50 | < 50 | < 50 | 2780 | < 50 | 1490 | < 50 | Ki [21]: 1470 nM
COc1ccc(C2NCCc3c2[nH]c2ccc(Cl)cc32)c(O)c1 (stereo not drawn) | < 50 | < 50 | < 50 | 31.5 | < 50 | 164 | 225 | 4.53 | < 50 | < 50 | < 50 | 8.3 | < 50 | < 50 | < 50 | < 50 | 2790 | < 50 | 1030 |  | 
COc1cc(OC)c(C2NCCc3c2[nH]c2ccc(F)cc32)cc1OC (stereo not drawn) | < 50 | < 50 | < 50 | 660 |  |  | 2440 | 55.7 | < 50 | < 50 | < 50 | 39 | < 50 | < 50 | < 50 | < 50 |  | < 50 | 760 | < 50 | Ki [21]: 961 nM

Source: ChEMBL document CHEMBL5131517 (ACS Med Chem Lett, 2022)
